Reference: article PMC11509018, “Evaluation of the Role of Tanshinone I in an In Vitro System of Charcot-Marie-Tooth Disease Type 2N” (International Journal of Molecular Sciences, 2024)

Biological target: T1, AlaRS^R329H (Homo sapiens, UniProt P49588, R329H)
T1 construct: made in house; host or cells: E. coli BL21 (DE3), pET-21a
T1 sequence (P49588 1-968 R329H): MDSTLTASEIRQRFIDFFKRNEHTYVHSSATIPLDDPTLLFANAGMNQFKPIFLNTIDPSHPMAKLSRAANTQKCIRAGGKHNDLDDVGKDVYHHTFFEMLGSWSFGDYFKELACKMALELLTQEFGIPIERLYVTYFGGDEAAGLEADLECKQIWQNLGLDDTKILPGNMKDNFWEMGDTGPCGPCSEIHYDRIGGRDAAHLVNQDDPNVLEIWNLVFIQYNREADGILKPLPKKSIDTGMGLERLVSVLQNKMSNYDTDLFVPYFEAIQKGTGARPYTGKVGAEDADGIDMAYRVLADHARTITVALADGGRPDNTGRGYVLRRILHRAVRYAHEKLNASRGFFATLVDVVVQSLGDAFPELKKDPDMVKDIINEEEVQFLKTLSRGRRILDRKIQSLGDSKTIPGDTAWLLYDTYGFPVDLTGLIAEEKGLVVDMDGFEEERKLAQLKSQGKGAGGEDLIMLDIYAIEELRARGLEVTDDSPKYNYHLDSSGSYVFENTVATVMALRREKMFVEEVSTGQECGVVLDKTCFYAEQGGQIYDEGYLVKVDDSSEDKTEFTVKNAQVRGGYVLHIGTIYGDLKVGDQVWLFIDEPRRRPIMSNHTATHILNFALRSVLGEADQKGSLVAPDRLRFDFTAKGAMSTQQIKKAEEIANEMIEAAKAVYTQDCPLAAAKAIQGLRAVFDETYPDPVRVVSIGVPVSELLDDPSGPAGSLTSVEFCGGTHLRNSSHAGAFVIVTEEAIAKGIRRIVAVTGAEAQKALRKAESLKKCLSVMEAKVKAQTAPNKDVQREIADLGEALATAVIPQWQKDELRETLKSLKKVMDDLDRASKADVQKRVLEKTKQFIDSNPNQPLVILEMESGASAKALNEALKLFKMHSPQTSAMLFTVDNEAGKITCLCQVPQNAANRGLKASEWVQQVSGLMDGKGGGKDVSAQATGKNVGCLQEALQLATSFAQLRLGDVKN
Assay: ATP consumption assay (enzyme inhibition)
Format: biochemical
Settings: 1 μM AlaRS^R329H at 20 μM compounds; vs DMSO control
Protocol: We further investigated the effects of the four small molecules on the enzymatic activity of the AlaRS^R329H protein using an ATP consumption assay. All four compounds affected enzymatic activity to varying degrees. […] The ATP consumption assay was used to evaluate the enzymatic inhibitory activity of the compounds. A 30 μL reaction mixture, containing 1 μM AlaRS mutants, 25 μM ATP, 50 μM L-alanine, 30 mM HEPES (pH 7.5), 150 mM NaCl, 30 mM KCl, 40 mM MgCl2, 0.1% BSA, and varying concentrations of Tanshinone I, was incubated at room temperature for 15 min. After incubation, 10 μL of the mixture was transferred to a 384-well microplate, and AlaRS mutant activity was measured by adding 10 μL of the ATP Assay Kit (#S0026, Beyotime, Shanghai, China). Luminescence was recorded using a Synergy HTX multimode microplate reader (BioTek Inc., Winooski, VT, USA). The inhibitory rate was calculated from three independent assays to ensure the accurate assessment of Tanshinone I’s inhibitory activity. The experiment was repeated three times.

Relative Activity (relative enzyme activity of the first step): 26.2%
SMILES: Cc1coc2c1C(=O)C(=O)c1c-2ccc2c(C)cccc12 [Tanshinone I]
